What was measured:
NBD1 = molecular target: T1, NBD1 (Homo sapiens, UniProt P13569); assay: Aggregation analysis using differential static light scattering (DSLS), thermal stability of NBD1 (ΔTagg); format: binding; settings: ΔTagg versus DMSO control, NBD1 0.2 mg/ml
T1 construct: Purified recombinant NBD1 was produced using previously described methods; made in house
Procedure, shortened: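 Differential static light scattering read from 25° C. to 70° C. every 0.5° C., ramp 1° C./min, on recombinant NBD1 (0.2 mg/ml; Tris/NaCl/MgCl2 buffer with 2 mM ATP, 2 mM DTT, pH 7.6, 1% glycerol) plus compound. Reported ΔTagg subtracts averaged DMSO Tagg from inflection-point Tagg; categories A ≤5, B >5-10, C >10-25° C.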

CFTR = molecular target: T2, CFTR (Homo sapiens, UniProt P13569, DEL508-508); assay: TECC24 AUC fold over DMSO @10 μM, CFTR-mediated transepithelial chloride transport in CF-HBE cells; format: cell-based; settings: test agent AUC divided by DMSO vehicle AUC, primary CF-HBE cells, ΔF508 homozygous donor, 48 hours incubation
T2 construct: Primary human bronchial epithelial cells from a ΔF508 homozygous CF donor; host or cells: primary human bronchial epithelial cells (CF-HBE), ΔF508 homozygous donor
T2 sequence (P13569 with tags, fused parts or gaps DEL508-508): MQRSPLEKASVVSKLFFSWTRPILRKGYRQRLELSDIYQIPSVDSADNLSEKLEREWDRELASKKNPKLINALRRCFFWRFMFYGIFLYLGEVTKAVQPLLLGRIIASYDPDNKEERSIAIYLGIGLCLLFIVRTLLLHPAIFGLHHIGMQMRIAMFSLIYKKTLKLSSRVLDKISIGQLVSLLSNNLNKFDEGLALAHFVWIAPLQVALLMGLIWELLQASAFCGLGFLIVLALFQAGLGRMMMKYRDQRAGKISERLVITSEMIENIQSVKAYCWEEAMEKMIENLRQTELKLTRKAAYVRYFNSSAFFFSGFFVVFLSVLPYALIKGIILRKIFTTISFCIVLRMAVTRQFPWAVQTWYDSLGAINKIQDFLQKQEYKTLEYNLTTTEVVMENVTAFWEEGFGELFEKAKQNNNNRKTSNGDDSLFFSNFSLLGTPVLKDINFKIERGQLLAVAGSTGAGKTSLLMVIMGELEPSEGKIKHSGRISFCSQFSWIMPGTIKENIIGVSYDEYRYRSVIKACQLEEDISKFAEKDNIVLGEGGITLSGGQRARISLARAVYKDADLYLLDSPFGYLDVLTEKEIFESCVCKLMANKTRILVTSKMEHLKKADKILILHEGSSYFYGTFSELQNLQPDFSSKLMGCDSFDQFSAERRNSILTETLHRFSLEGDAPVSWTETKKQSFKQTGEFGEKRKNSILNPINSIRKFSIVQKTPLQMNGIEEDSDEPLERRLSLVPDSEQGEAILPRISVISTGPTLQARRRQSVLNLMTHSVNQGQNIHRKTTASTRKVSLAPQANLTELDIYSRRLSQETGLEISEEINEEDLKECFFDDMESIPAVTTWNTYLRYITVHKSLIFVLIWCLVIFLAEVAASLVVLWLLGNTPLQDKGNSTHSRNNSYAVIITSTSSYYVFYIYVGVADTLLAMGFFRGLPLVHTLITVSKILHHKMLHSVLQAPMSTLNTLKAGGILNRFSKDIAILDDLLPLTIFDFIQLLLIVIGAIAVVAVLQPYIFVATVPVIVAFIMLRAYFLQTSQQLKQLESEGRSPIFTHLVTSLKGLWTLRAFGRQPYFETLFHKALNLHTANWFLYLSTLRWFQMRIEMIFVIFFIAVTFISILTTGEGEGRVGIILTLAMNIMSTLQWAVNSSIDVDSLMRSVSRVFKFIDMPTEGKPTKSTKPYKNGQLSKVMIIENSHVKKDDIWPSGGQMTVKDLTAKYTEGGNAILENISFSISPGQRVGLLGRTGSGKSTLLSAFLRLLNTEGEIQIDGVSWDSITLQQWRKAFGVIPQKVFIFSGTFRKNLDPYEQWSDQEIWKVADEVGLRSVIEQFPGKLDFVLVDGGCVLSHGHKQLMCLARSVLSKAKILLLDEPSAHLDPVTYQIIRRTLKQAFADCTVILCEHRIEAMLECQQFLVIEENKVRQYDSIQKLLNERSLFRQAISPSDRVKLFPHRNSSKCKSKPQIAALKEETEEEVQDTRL
Procedure, shortened: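 ΔF508-homozygous primary bronchial epithelial cells incubated 48 h at 36.5° C with compound (10 μM) in IL-13-containing medium, then TECC24 current-clamp recording in pH 7.4 Hepes saline with benzamil 10 μM, forskolin 10 μM, then CFTR inhibitor-172 20 μM. Equivalent Cl− current AUC between forskolin and inhibitor, expressed as fold over DMSO.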

T1 sequence (P13569 423-646 limits assumed): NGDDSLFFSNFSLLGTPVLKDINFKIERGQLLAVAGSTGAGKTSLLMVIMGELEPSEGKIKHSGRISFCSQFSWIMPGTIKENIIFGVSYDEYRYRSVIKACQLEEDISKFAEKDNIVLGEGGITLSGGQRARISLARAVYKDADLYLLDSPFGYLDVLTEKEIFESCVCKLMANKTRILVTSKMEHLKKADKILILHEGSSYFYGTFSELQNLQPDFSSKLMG

Structure (SMILES) | DSLS 3D (100 μM ΔT) (NBD1) | TECC (AUC, 10 μM) (CFTR)
CC(Cc1cccc(C2(C)COCC(C)(C)CS(=O)(=O)CCc3c(c(F)cc4[nH]ccc34)Oc3ccc(F)c(c3)-c3nc2nn3C)c1)C(=O)O (single isomer, unassigned) [Compound 113B] | A (an ΔTagg value less than or equal to 5 °C is marked “A”) | A (a TECC value less than 12 is marked “A”)
[2H]C([2H])([2H])C1(c2cccc(CC(C)C(=O)O)c2)COCC(C)(C)CS(=O)(=O)CCc2c(c(F)c(F)c3[nH]ccc23)Oc2ccc(F)c(c2)-c2nc1nn2C (single isomer, unassigned) [Compound 118A, 2-methyl-3-[3-[21,22,28-trifluoro-3,10,10-trimethyl-12,12-dioxo-6-(trideuteriomethyl)-8,24-dioxa-12λ6-thia-3,4,19,30-tetrazapentacyclo[23.3.1.12,5.015,23.016,20]triaconta-1(29),2(30),4,15,17,20,22,25,27-nonaen-6-yl]phenyl]propanoic acid] | C (a value greater than 10 °C and less than or equal to 25 °C is marked “C”) | A (a TECC value less than 12 is marked “A”)
[2H]C([2H])([2H])C1(c2cccc(CC(C)C(=O)O)c2)COCC(C)(C)CS(=O)(=O)CCc2c(c(F)c(F)c3[nH]ccc23)Oc2ccc(F)c(c2)-c2nc1nn2C (single isomer, unassigned) [Compound 118B, 2-methyl-3-[3-[21,22,28-trifluoro-3,10,10-trimethyl-12,12-dioxo-6-(trideuteriomethyl)-8,24-dioxa-12λ6-thia-3,4,19,30-tetrazapentacyclo[23.3.1.12,5.015,23.016,20]triaconta-1(29),2(30),4,15,17,20,22,25,27-nonaen-6-yl]phenyl]propanoic acid] | A (an ΔTagg value less than or equal to 5 °C is marked “A”) | A (a TECC value less than 12 is marked “A”)
[2H]C([2H])([2H])C1(c2cccc(CC(C)C(=O)O)c2)CCC(C)(C)CCS(=O)(=O)CCc2c(c(F)cc3[nH]ccc23)Oc2ccc(F)c(c2)-c2nc1nn2C (single isomer, unassigned) [Compound 119A, 3-[3-[22,28-difluoro-3,9,9-trimethyl-12,12-dioxo-6-(trideuteriomethyl)-24-oxa-12lambda6-thia-3,4,19,30-tetrazapentacyclo[23.3.1.12,5.015,23.016,20]triaconta-1(29),2(30),4,15,17,20,22,25,27-nonaen-6-yl]phenyl]-2-methyl-propanoic acid] | A (an ΔTagg value less than or equal to 5 °C is marked “A”) | A (a TECC value less than 12 is marked “A”)
[2H]C([2H])([2H])C1(c2cccc(CC(C)C(=O)O)c2)CCC(C)(C)CCS(=O)(=O)CCc2c(c(F)cc3[nH]ccc23)Oc2ccc(F)c(c2)-c2nc1nn2C (single isomer, unassigned) [Compound 119B, 3-[3-[22,28-difluoro-3,9,9-trimethyl-12,12-dioxo-6-(trideuteriomethyl)-24-oxa-12lambda6-thia-3,4,19,30-tetrazapentacyclo[23.3.1.12,5.015,23.016,20]triaconta-1(29),2(30),4,15,17,20,22,25,27-nonaen-6-yl]phenyl]-2-methyl-propanoic acid] | B (a value above 5 °C and less than or equal to 10 °C is marked “B”) | A (a TECC value less than 12 is marked “A”)
[2H]C([2H])([2H])C1(c2cccc(CC3(C(=O)O)CC3)c2)CCCC(C)(C)CS(=O)(=O)CCc2c(c(F)cc3[nH]ccc23)Oc2ccc(F)c(c2)-c2nc1nn2C (single isomer, unassigned) [Compound 120A, 1-[[3-[22,28-difluoro-3,10,10-trimethyl-12,12-dioxo-6-(trideuteriomethyl)-24-oxa-12λ6-thia-3,4,19,30-tetrazapentacyclo[23.3.1.12,5.015,23.016,20]triaconta-1(29),2(30),4,15,17,20,22,25,27-nonaen-6-yl]phenyl]methyl]cyclopropanecarboxylic Acid] | C (a value greater than 10 °C and less than or equal to 25 °C is marked “C”) | A (a TECC value less than 12 is marked “A”)
[2H]C([2H])([2H])C1(c2cccc(CC3(C(=O)O)CC3)c2)CCCC(C)(C)CS(=O)(=O)CCc2c(c(F)cc3[nH]ccc23)Oc2ccc(F)c(c2)-c2nc1nn2C (single isomer, unassigned) [Compound 120B, 1-[[3-[22,28-difluoro-3,10,10-trimethyl-12,12-dioxo-6-(trideuteriomethyl)-24-oxa-12λ6-thia-3,4,19,30-tetrazapentacyclo[23.3.1.12,5.015,23.016,20]triaconta-1(29),2(30),4,15,17,20,22,25,27-nonaen-6-yl]phenyl]methyl]cyclopropanecarboxylic Acid] | A (an ΔTagg value less than or equal to 5 °C is marked “A”) | A (a TECC value less than 12 is marked “A”)
Cn1nc2nc1-c1cc(ccc1F)Oc1c(F)c(F)c3[nH]ccc3c1CCS(=O)(=O)CC(C)(C)CCCC2(C#N)c1cccc(CC2(C(=O)O)CC2)c1 (single isomer, unassigned) [Compound 121A, 1-[[3-(6-cyano-21,22,28-trifluoro-3,10,10-trimethyl-12,12-dioxo-24-oxa-12λ6-thia-3,4,19,30-tetrazapentacyclo[23.3.1.12,5.015,23.016,20]triaconta-1(29),2(30),4,15,17,20,22,25,27-nonaen-6-yl)phenyl]methyl]cyclopropanecarboxylic Acid] | C (a value greater than 10 °C and less than or equal to 25 °C is marked “C”) | B (a value between 12-20 is marked “B”)
Cn1nc2nc1-c1cc(ccc1F)Oc1c(F)c(F)c3[nH]ccc3c1CCS(=O)(=O)CC(C)(C)CCCC2(C#N)c1cccc(CC2(C(=O)O)CC2)c1 (single isomer, unassigned) [Compound 121B, 1-[[3-(6-cyano-21,22,28-trifluoro-3,10,10-trimethyl-12,12-dioxo-24-oxa-12λ6-thia-3,4,19,30-tetrazapentacyclo[23.3.1.12,5.015,23.016,20]triaconta-1(29),2(30),4,15,17,20,22,25,27-nonaen-6-yl)phenyl]methyl]cyclopropanecarboxylic Acid] | A (an ΔTagg value less than or equal to 5 °C is marked “A”) | A (a TECC value less than 12 is marked “A”)
Cn1nc2nc1-c1cc(ccc1F)Oc1c(F)cc3[nH]ccc3c1CCS(=O)(=O)CC(C)(C)CCCC2(C#N)c1cccc(CC2(C(=O)O)CC2)c1 (single isomer, unassigned) [Compound 122A, 1-[[3-(6-cyano-22,28-difluoro-3,10,10-trimethyl-12,12-dioxo-24-oxa-12λ6-thia-3,4,19,30-tetrazapentacyclo[23.3.1.12,5.015,23.016,20]triaconta-1(29),2(30),4,15,17,20,22,25,27-nonaen-6-yl)phenyl]methyl]cyclopropanecarboxylic Acid] | C (a value greater than 10 °C and less than or equal to 25 °C is marked “C”) | A (a TECC value less than 12 is marked “A”)
Cn1nc2nc1-c1cc(ccc1F)Oc1c(F)cc3[nH]ccc3c1CCS(=O)(=O)CC(C)(C)CCCC2(C#N)c1cccc(CC2(C(=O)O)CC2)c1 (single isomer, unassigned) [Compound 122B, 1-[[3-(6-cyano-22,28-difluoro-3,10,10-trimethyl-12,12-dioxo-24-oxa-12λ6-thia-3,4,19,30-tetrazapentacyclo[23.3.1.12,5.015,23.016,20]triaconta-1(29),2(30),4,15,17,20,22,25,27-nonaen-6-yl)phenyl]methyl]cyclopropanecarboxylic Acid] | A (an ΔTagg value less than or equal to 5 °C is marked “A”) | A (a TECC value less than 12 is marked “A”)
Cn1nc2nc1-c1cc(ccc1F)Oc1c(F)cc3[nH]ccc3c1CCS(=O)(=O)CC(C)(C)OCCC2(C#N)c1cccc(CC2(C(=O)O)CC2)c1 (single isomer, unassigned) [Compound 123A, 1-[[3-(6-cyano-22,28-difluoro-3,10,10-trimethyl-12,12-dioxo-9,24-dioxa-12λ6-thia-3,4,19,30-tetrazapentacyclo[23.3.1.12,5.015,23.016,20]triaconta-1(29),2(30),4,15,17,20,22,25,27-nonaen-6-yl)phenyl]methyl]cyclopropanecarboxylic Acid] | A (an ΔTagg value less than or equal to 5 °C is marked “A”) | A (a TECC value less than 12 is marked “A”)
Cn1nc2nc1-c1cc(ccc1F)Oc1c(F)cc3[nH]ccc3c1CCS(=O)(=O)CC(C)(C)OCCC2(C#N)c1cccc(CC2(C(=O)O)CC2)c1 (single isomer, unassigned) [Compound 123B, 1-[[3-(6-cyano-22,28-difluoro-3,10,10-trimethyl-12,12-dioxo-9,24-dioxa-12λ6-thia-3,4,19,30-tetrazapentacyclo[23.3.1.12,5.015,23.016,20]triaconta-1(29),2(30),4,15,17,20,22,25,27-nonaen-6-yl)phenyl]methyl]cyclopropanecarboxylic Acid] | C (a value greater than 10 °C and less than or equal to 25 °C is marked “C”) | A (a TECC value less than 12 is marked “A”)

Source: patent publication US12649750B2, “Macrocyclic compounds, compositions, and methods of using thereof” (Sionna Therapeutics Inc., priority 2022, dated 2026)
